What was measured:
[1] = tested on: HCT-116 colonic cancer cells; assay: Cell viability, hexosaminidase assay, monotherapy; format: cell-based
Procedure: (§1) In brief, HCT-116, MiaPaCa-2 and Panc-1 cells were thawed in high glucose DMEM (Sigma D5796) with 10% heat-inactivated Foetal Calf Serum (FCS) (PAA, A15-101)). Hep-G2 and SK-Hep1 cells were thawed in Minimum Essential Media (MEM) (Sigma M2279) with 1% non-essential amino acids (Sigma M7145), 2 mM Glutamine (Sigma G7513) and 10% FCS. SK-OV-3 cells were thawed in McCoy's 5A medium (Sigma, M8403) with 15% FCS. All cells were passaged by washing once in cation-free dPBS (Sigma, D1408), and incubated for 3 minutes with trypsin ([0.5 μg/ml]/EDTA [0.2 μg/ml] (Sigma, T4174) in dPBS). Passage was completed at 37° C., and cells were transferred to the appropriate media. Prior to seeding at defined cell density, cells were recovered in medium, centrifuged and resuspended for counting.
(§2) To prepare cells for viability assays, cells were transferred into 96 well tissue culture plates (Cultek), and resuspended in 100 µL at the following densities: 10,000 cells/well (Hep-G2 and MiaPaCa-2), 5000 cells/well (Panc-1 and SK-OV-3) or 3000 cells/well (HCT-116). Following 24 hours of incubation, media was removed and replaced with 100 µL media spiked with QTX125 and the test chemotherapeutic agents. Stock solutions for the agents used in this study are shown below in Table 1. Cells were incubated for a further 72 hours before cell viability was assessed using both ALAMAR® and hexosaminidase assays.
(§3) For the hexosaminidase assay, media containing QTX125 and the test chemotherapeutic agents was removed, and cells were washed once with PBS. 60 μL of substrate solution (containing: 7.5 mM p-nitrophenol-N-acetyl-beta-D-glucosamide [Sigma N-9376], 0.1 M sodium citrate, pH 5.0 and 0.25% Triton X-100) was added to each well and cells were incubated at 37° C. for at least 1 hour. Incubating cells in this manner causes the substrate solution to become bright yellow, at which point 90 μL of developer solution (containing 50 mM Glycine pH 10.4 and 5 mM EDTA) was added to each well. Absorbance at 410 nm was recorded using a plate reader.
(§4) A number of appropriate control samples were included. First, absorbance values measured in reagent ‘blank’ wells (containing cell culture medium and colorimetric agent only) were subtracted from ‘test’ sample-containing wells. ‘Blank’ absorbance values were routinely between 5 and 10% of the values recorded in test wells. Absorbance values recorded in test wells were then compared against wells containing (i) cells stimulated with QTX125 only; (ii) cells stimulated with sorafenib, gemcitabine or bortezomib only and/or (iii) unstimulated cells, as appropriate.
(§5) Control values were normalised to 100% and percentage (%) viability was calculated. Data were used to plot log dose-response curves using a sigmoid dose-response (variable slope) equation. EC50 values were obtained using Equation 1, where ‘X’ is the logarithmic concentration; ‘Y’ is the response output and it is assumed that Y starts at bottom of the graph and reaches the top with an overall sigmoid shape.
(§6) Prior to assessing the oncolytic efficacy of QTX125-containing combination therapies, the oncolytic effect of each test agent was assessed in isolation. Dose-response curves were produced by serial dilution (1:1), thereby allowing monotherapy EC50 values to be calculated.
(§7) Chemotherapeutic agents were added to wells at a starting concentration of 100 μM. However, it was quickly determined that it was not possible to use this range for all chemotherapeutic agents tested. An optimization study was therefore completed to identify suitable maximum (‘high’) doses for each agent and in each individual cell line.

[2] = tested on: Hep-G2 hepatic cancer cells; assay: Cell viability, hexosaminidase assay, monotherapy; format: cell-based
Procedure: as §1, §2, §3, §4, §5, §6, §7

[3] = tested on: MiaPaCa-2 pancreatic cancer cells; assay: Cell viability, hexosaminidase assay, monotherapy; format: cell-based
Procedure: as §1, §2, §3, §4, §5, §6, §7

[4] = tested on: Panc-1 pancreatic cancer cells; assay: Cell viability, hexosaminidase assay, monotherapy; format: cell-based
Procedure: as §1, §2, §3, §4, §5, §6, §7

[5] = tested on: SK-OV-3 ovarian cancer cells; assay: Cell viability, hexosaminidase assay, monotherapy; format: cell-based
Procedure: as §1, §2, §3, §4, §5, §6, §7

[6] = tested on: mantle cell lymphoma, lung cancer and pancreatic cancer xenografts; details: lung cancer and pancreatic cancer xenograft murine models; cited from earlier work
[7] = Homo sapiens, 72 h, read-out: EC50 dose of monotherapy
[8] = 72 hours of high-dose monotherapy (Table 2: QTX125 100, sorafenib 100, gemcitabine 100, bortezomib 1 μM)

EC50 [1, 7]: 0.43 µM
EC50 ([2]; Homo sapiens, HepG2, 72 h, read-out: EC50 dose of monotherapy): 3.3 ± 0.4 µM
EC50 ([3]; Homo sapiens, MIA PaCa-2, 72 h, read-out: EC50 dose of monotherapy): 1.5 ± 0.2 µM
EC50 [4, 7]: 3.6 ± 0.5 µM
EC50 [5, 7]: 3.6 ± 0.4 µM
Compound: O=C(NO)c1ccc(CNC(=O)c2[nH]c(-c3ccc(O)cc3)cc2-c2ccoc2)cc1 [QTX125, 3-(3-Furyl)-N-{4-[(hydroxyamino)carbonyl]benzyl}-5-(4-hydroxyphenyl)-1 Hpyrrole-2-carboxamide]
percentage (%) cell viabilities ([1]; 72 hours of high-dose monotherapy (Table 2: QTX125 1, sorafenib 100, gemcitabine 10, bortezomib 1 μM)): 7.3%
percentage (%) cell viabilities ([2]; 72 hours of high-dose monotherapy (Table 2: QTX125 5, sorafenib 100, gemcitabine 100, bortezomib 1 μM)): 2.1%
reduction of the population of viable cells ([2]; high-dose monotherapy, 72 hours): ~98%
percentage (%) cell viabilities [3, 8]: 7.3%
percentage (%) cell viabilities [4, 8]: 3.9%
percentage (%) cell viabilities ([5]; 72 hours of high-dose monotherapy (Table 2: QTX125 10, sorafenib 100, gemcitabine 10, bortezomib 1 μM)): 5.0%
antitumoral efficacy [6]: high antitumoral efficacy

Reference: patent publication US20250281453A1, “COMBINATION THERAPIES COMPRISING QTX125” (QUIMATRYX, S.L., priority 2022, published 2025)
